Consider 17 compounds from the Biogen ADME set (Fang et al. 2023).

For this data set the following is noted: for aqueous solubility: pH 6.8.

Molecules are shown by their SMILES. Values after ≈ are worked out from the molar mass of the structure shown.

On to `COC(C)(C)C(=O)Nc1ccnc(C(C)(C)C)n1`, for which the MDR1-MDCK efflux ratio turned out to be 0.599; the intrinsic clearance, human liver microsomes turned out to be 10.9 mL/min/kg; the intrinsic clearance, rat liver microsomes was found to be 106 mL/min/kg.

As a reminder, the aqueous solubility is how much of the substance goes into solution per volume. Low readings indicate a poorly soluble substance, high ones a readily soluble substance. `O[C@@H]1CO[C@H]2C[C@@H]1Nc1c(Cc3ccccc3)cccc12`: the MDR1-MDCK efflux ratio amounted to 0.47; the intrinsic clearance, human liver microsomes stood at 33.5 mL/min/kg; the intrinsic clearance, rat liver microsomes came to 354 mL/min/kg; the aqueous solubility amounted to 30 µg/mL (≈ 106 µM).

Regarding `COc1ccccc1C(=O)Nc1ccc2cc[nH]c2c1`, the MDR1-MDCK efflux ratio stood at 0.247; the fraction unbound, human plasma came out at 0.032; the fraction unbound, rat plasma came out at 0.0373; the intrinsic clearance, human liver microsomes was 84.8 mL/min/kg. The compound also had an intrinsic clearance, rat liver microsomes of 491 mL/min/kg and an aqueous solubility of 4.9 µg/mL (≈ 18.4 µM).

Compound `O=C(Nc1ccn(-c2ncccc2Cl)n1)c1csnn1` returned an aqueous solubility of 28.5 µg/mL (≈ 92.9 µM).

Consider `CN(C)c1nc(CN2CCOCC2)nc2scc(-c3cccs3)c12`, for which the MDR1-MDCK efflux ratio is 1.03; the intrinsic clearance, human liver microsomes was found to be 165 mL/min/kg; the intrinsic clearance, rat liver microsomes came to 1790 mL/min/kg; the aqueous solubility came to 57.3 µg/mL (≈ 159 µM).

Consider `O=C(Nc1ccncc1)[C@H]1CCCN(S(=O)(=O)c2ccc(Cl)cc2)C1`, for which the MDR1-MDCK efflux ratio turned out to be 20; the intrinsic clearance, human liver microsomes came out at 22.2 mL/min/kg; the intrinsic clearance, rat liver microsomes is 721 mL/min/kg.

Regarding `COc1ccc(OC[C@@H]2c3cc(OC)c(OC)cc3CCN2C(=O)c2cccc(Cl)c2)cc1`, the MDR1-MDCK efflux ratio is 1.25; the fraction unbound, human plasma was 0.00764; the fraction unbound, rat plasma was determined as 0.0171.

As to `COCc1ccc(SCC(=O)NC2CCCC2)cc1`, the MDR1-MDCK efflux ratio turned out to be 0.714; the intrinsic clearance, human liver microsomes is 33.3 mL/min/kg; the intrinsic clearance, rat liver microsomes worked out at 2550 mL/min/kg.

As for `COc1ccc(C)nc1-c1ccc(OC)c(OC)c1OC`, the MDR1-MDCK efflux ratio is 0.981; the intrinsic clearance, human liver microsomes is at most 4.74 mL/min/kg; the intrinsic clearance, rat liver microsomes came to 359 mL/min/kg.

Consider `Cc1nc(C)c2c(C)c(C(=O)N(C)CCN3CCCC3)sc2n1`, for which the MDR1-MDCK efflux ratio amounted to 12.6; the intrinsic clearance, human liver microsomes is at most 4.74 mL/min/kg; the intrinsic clearance, rat liver microsomes was found to be 77.8 mL/min/kg; the aqueous solubility came out at 60.9 µg/mL (≈ 183 µM).

In the case of `O=C(Nc1ccc(F)cc1)c1cc(C2CC2)nn1-c1ccccc1`, the MDR1-MDCK efflux ratio was 0.314; the intrinsic clearance, human liver microsomes is 20.7 mL/min/kg; the intrinsic clearance, rat liver microsomes amounted to 76.3 mL/min/kg; the aqueous solubility is 4.11 µg/mL (≈ 12.8 µM).

For `c1csc(-c2csc3nc(CN4CCOCC4)nc(N4CCc5[nH]ncc5C4)c23)c1`, the MDR1-MDCK efflux ratio amounted to 83.5; the intrinsic clearance, human liver microsomes was found to be 559 mL/min/kg; the intrinsic clearance, rat liver microsomes worked out at 1320 mL/min/kg; the aqueous solubility is 49 µg/mL (≈ 112 µM).

On to `CCOc1cc(CNc2ccc(N3CCOCC3)c(C(=O)O)c2)cc(Cl)c1OC`, for which the intrinsic clearance, human liver microsomes came to 21.1 mL/min/kg; the intrinsic clearance, rat liver microsomes is 154 mL/min/kg; the aqueous solubility worked out at 22.7 µg/mL (≈ 54 µM).

Turning to `Cc1noc(-c2ccc(NC(=O)Cc3ccccc3)cc2)n1`, the MDR1-MDCK efflux ratio stood at 0.573; the intrinsic clearance, human liver microsomes was 7.82 mL/min/kg; the intrinsic clearance, rat liver microsomes is 57.1 mL/min/kg; the aqueous solubility came out at 7.94 µg/mL (≈ 27.1 µM).

Take `O=C(Cn1cc(NCc2cccc(Cl)c2)cn1)N1CCOCC1`: the MDR1-MDCK efflux ratio amounted to 4.24; the intrinsic clearance, human liver microsomes was found to be 5.9 mL/min/kg; the intrinsic clearance, rat liver microsomes is 71.9 mL/min/kg.

In the case of `CNC(=O)C1CCN(Cc2ncc(-c3ccc(F)cc3)o2)CC1`, the MDR1-MDCK efflux ratio was determined as 4.86; the intrinsic clearance, human liver microsomes was at most 4.74 mL/min/kg; the intrinsic clearance, rat liver microsomes stood at 11.2 mL/min/kg; the aqueous solubility amounted to 19.8 µg/mL (≈ 62.4 µM).

With `COc1cc(OC)cc(N2CCC(NCC3(C)CCOCC3)CC2)c1`, the MDR1-MDCK efflux ratio was determined as 1.55; the intrinsic clearance, human liver microsomes was at most 4.74 mL/min/kg; the intrinsic clearance, rat liver microsomes amounted to 58.2 mL/min/kg.
